Assay results reported in ChEMBL document CHEMBL4507284, “Data for DCP probe BI-1230” (2021).

How the values were obtained:
[1] = biological target: Activin receptor type-1-like (Homo sapiens) (UniProt P37023); details: Compound concentration 1000.0 nM
[2] = biological target: RAC-alpha serine/threonine-protein kinase (Homo sapiens) (UniProt P31749); details: Compound concentration 1000.0 nM
[3] = biological target: 5'-AMP-activated protein kinase catalytic subunit alpha-2 (Homo sapiens) (UniProt P54646); details: Compound concentration 1000.0 nM
[4] = biological target: Mitogen-activated protein kinase kinase kinase 5 (Homo sapiens) (UniProt Q99683); details: Compound concentration 1000.0 nM
[5] = biological target: BMP-2-inducible protein kinase (Homo sapiens) (UniProt Q9NSY1); details: Compound concentration 1000.0 nM
Chain of BMP-2-inducible protein kinase (Homo sapiens) (Q9NSY1 whole entry, looked up): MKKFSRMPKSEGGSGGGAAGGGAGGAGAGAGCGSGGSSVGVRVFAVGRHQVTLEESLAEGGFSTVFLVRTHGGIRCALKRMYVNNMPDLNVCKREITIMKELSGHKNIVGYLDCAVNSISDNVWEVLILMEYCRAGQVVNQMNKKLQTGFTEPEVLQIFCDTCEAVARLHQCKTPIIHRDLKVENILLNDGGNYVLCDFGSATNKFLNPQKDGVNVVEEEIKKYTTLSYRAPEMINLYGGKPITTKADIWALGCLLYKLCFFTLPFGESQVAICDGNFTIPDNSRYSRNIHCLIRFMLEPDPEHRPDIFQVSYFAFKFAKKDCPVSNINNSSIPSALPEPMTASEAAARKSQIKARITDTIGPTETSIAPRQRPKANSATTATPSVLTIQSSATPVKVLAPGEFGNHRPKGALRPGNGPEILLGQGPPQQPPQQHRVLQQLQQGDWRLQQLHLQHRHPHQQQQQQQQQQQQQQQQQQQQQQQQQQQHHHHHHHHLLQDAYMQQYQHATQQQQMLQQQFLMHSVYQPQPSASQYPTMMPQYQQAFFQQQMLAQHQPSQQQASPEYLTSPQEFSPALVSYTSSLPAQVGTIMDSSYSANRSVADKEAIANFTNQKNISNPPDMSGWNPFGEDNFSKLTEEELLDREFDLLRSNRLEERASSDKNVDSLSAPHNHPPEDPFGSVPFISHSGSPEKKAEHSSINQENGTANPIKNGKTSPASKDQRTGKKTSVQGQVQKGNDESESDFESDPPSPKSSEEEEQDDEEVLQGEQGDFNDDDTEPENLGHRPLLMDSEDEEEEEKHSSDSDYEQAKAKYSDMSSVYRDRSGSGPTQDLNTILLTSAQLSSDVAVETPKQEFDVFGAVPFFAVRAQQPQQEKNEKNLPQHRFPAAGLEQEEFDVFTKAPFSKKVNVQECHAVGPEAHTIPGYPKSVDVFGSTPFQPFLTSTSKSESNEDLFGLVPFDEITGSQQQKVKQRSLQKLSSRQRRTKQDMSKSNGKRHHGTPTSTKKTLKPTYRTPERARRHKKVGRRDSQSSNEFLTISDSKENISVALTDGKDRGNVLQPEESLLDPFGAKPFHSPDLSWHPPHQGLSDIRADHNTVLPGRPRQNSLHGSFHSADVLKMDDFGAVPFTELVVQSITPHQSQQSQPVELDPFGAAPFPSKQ

[6] = biological target: Bone morphogenetic protein receptor type-1A (Homo sapiens) (UniProt P36894); details: Compound concentration 1000.0 nM
[7] = biological target: Peripheral plasma membrane protein CASK (Homo sapiens) (UniProt O14936); details: Compound concentration 1000.0 nM
Chain of Peripheral plasma membrane protein CASK (Homo sapiens) (O14936 whole entry): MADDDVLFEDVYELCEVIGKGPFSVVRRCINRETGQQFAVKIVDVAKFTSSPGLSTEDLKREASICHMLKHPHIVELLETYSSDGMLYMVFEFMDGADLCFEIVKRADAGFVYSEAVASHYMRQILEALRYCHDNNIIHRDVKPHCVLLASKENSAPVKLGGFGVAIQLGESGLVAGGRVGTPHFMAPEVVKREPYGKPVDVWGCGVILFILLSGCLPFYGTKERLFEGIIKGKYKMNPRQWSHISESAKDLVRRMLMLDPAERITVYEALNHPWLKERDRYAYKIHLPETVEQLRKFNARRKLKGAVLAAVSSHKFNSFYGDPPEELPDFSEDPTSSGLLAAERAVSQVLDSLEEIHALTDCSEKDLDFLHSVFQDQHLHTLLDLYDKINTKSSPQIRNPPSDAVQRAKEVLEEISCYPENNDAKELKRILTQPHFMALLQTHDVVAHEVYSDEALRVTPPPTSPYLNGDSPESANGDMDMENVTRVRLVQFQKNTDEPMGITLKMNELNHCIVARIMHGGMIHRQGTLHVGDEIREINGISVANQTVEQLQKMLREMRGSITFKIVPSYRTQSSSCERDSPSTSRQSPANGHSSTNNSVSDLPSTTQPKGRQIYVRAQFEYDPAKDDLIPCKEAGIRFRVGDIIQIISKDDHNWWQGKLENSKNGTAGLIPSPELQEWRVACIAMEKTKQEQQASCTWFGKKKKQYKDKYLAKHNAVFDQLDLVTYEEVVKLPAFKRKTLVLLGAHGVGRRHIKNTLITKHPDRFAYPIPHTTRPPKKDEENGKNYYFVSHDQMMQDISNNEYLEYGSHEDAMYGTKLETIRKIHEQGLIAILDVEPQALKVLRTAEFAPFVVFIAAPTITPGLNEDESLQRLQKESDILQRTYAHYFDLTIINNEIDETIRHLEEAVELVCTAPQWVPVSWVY

[8] = biological target: Cyclin-dependent kinase 2 (Homo sapiens) (UniProt P24941); details: Compound concentration 1000.0 nM
[9] = biological target: Cyclin-dependent kinase 4 (Homo sapiens) (UniProt P11802); details: Compound concentration 1000.0 nM
Chain of Cyclin-dependent kinase 4 (Homo sapiens) (P11802 whole entry): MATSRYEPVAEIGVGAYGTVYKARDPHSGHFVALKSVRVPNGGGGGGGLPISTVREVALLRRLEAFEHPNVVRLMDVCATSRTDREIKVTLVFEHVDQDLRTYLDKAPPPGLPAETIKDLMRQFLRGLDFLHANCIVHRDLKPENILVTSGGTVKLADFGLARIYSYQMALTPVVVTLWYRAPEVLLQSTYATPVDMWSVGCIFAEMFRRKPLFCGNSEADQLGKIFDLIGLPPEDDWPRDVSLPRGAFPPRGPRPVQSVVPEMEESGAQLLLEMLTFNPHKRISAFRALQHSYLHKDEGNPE

[10] = biological target: Cyclin-dependent kinase 5 (Homo sapiens) (UniProt Q00535); details: Compound concentration 1000.0 nM
[11] = biological target: Cyclin-dependent kinase 9 (Homo sapiens) (UniProt P50750); details: Compound concentration 1000.0 nM
[12] = biological target: Cyclin-dependent kinase-like 3 (Homo sapiens) (UniProt Q8IVW4); details: Compound concentration 1000.0 nM
[13] = biological target: Dual specificity protein kinase CLK1 (Homo sapiens) (UniProt P49759); details: Compound concentration 1000.0 nM
[14] = biological target: Macrophage colony-stimulating factor 1 receptor (Homo sapiens) (UniProt P07333); details: Compound concentration 1000.0 nM
[15] = biological target: Serine/threonine-protein kinase 17B (Homo sapiens) (UniProt O94768); details: Compound concentration 1000.0 nM
Chain of Serine/threonine-protein kinase 17B (Homo sapiens) (O94768 whole entry): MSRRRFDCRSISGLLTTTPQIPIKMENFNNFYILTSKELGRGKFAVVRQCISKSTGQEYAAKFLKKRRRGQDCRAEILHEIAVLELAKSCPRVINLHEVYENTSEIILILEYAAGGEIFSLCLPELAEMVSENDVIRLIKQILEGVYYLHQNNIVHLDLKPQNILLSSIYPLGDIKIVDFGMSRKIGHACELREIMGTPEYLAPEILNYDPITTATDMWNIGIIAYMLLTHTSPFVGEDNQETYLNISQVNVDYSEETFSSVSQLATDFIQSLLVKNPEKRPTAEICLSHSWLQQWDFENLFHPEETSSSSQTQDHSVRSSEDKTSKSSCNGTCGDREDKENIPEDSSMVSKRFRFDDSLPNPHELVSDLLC

[16] = biological target: Dual specificity tyrosine-phosphorylation-regulated kinase 2 (Homo sapiens) (UniProt Q92630); details: Compound concentration 1000.0 nM
[17] = biological target: Ephrin type-A receptor 3 (Homo sapiens) (UniProt P29320); details: Compound concentration 1000.0 nM
[18] = biological target: Ephrin type-A receptor 4 (Homo sapiens) (UniProt P54764); details: Compound concentration 1000.0 nM
[19] = biological target: Ephrin type-A receptor 7 (Homo sapiens) (UniProt Q15375); details: Compound concentration 1000.0 nM
[20] = biological target: Ephrin type-B receptor 3 (Homo sapiens) (UniProt P54753); details: Compound concentration 1000.0 nM
[21] = biological target: Receptor tyrosine-protein kinase erbB-4 (Homo sapiens) (UniProt Q15303); details: Compound concentration 1000.0 nM
[22] = biological target: Mitogen-activated protein kinase 1 (Homo sapiens) (UniProt P28482); details: Compound concentration 1000.0 nM
[23] = biological target: Serine/threonine-protein kinase/endoribonuclease IRE1 (Homo sapiens) (UniProt O75460); details: Compound concentration 1000.0 nM
[24] = biological target: Focal adhesion kinase 1 (Homo sapiens) (UniProt Q05397); details: Compound concentration 1000.0 nM
[25] = test system: Receptor-type tyrosine-protein kinase FLT3 (Homo sapiens), P36888 [UNDEFINED MUTATION]; details: Compound concentration 1000.0 nM
[26] = test system: Receptor-type tyrosine-protein kinase FLT3 (Homo sapiens), P36888 [UNDEFINED MUTATION]; details: Compound concentration 1000.0 nM; remark: listed apart in the source
[27] = test system: Receptor-type tyrosine-protein kinase FLT3 (Homo sapiens), P36888 [K663Q]; details: Compound concentration 1000.0 nM
[28] = biological target: Hormonally up-regulated neu tumor-associated kinase (Homo sapiens) (UniProt P57058); details: Compound concentration 1000.0 nM
[29] = biological target: Leucine-rich repeat serine/threonine-protein kinase 2 (Homo sapiens) (UniProt Q5S007); details: Compound concentration 1000.0 nM
[30] = biological target: Dual specificity mitogen-activated protein kinase kinase 5 (Homo sapiens) (UniProt Q13163); details: Compound concentration 1000.0 nM
[31] = test system: Hepatocyte growth factor receptor (Homo sapiens), P08581 [M1250T]; details: Compound concentration 1000.0 nM
[32] = biological target: Macrophage-stimulating protein receptor (Homo sapiens) (UniProt Q04912); details: Compound concentration 1000.0 nM
[33] = biological target: Mitogen-activated protein kinase 14 (Homo sapiens) (UniProt Q16539); details: Compound concentration 1000.0 nM
[34] = biological target: 3-phosphoinositide-dependent protein kinase 1 (Homo sapiens) (UniProt O15530); details: Compound concentration 1000.0 nM
[35] = biological target: Phosphorylase b kinase regulatory subunit alpha, liver isoform (Homo sapiens) (UniProt P46019); details: Compound concentration 1000.0 nM
Chain of Phosphorylase b kinase regulatory subunit alpha, liver isoform (Homo sapiens) (P46019 whole entry, canonical isoform): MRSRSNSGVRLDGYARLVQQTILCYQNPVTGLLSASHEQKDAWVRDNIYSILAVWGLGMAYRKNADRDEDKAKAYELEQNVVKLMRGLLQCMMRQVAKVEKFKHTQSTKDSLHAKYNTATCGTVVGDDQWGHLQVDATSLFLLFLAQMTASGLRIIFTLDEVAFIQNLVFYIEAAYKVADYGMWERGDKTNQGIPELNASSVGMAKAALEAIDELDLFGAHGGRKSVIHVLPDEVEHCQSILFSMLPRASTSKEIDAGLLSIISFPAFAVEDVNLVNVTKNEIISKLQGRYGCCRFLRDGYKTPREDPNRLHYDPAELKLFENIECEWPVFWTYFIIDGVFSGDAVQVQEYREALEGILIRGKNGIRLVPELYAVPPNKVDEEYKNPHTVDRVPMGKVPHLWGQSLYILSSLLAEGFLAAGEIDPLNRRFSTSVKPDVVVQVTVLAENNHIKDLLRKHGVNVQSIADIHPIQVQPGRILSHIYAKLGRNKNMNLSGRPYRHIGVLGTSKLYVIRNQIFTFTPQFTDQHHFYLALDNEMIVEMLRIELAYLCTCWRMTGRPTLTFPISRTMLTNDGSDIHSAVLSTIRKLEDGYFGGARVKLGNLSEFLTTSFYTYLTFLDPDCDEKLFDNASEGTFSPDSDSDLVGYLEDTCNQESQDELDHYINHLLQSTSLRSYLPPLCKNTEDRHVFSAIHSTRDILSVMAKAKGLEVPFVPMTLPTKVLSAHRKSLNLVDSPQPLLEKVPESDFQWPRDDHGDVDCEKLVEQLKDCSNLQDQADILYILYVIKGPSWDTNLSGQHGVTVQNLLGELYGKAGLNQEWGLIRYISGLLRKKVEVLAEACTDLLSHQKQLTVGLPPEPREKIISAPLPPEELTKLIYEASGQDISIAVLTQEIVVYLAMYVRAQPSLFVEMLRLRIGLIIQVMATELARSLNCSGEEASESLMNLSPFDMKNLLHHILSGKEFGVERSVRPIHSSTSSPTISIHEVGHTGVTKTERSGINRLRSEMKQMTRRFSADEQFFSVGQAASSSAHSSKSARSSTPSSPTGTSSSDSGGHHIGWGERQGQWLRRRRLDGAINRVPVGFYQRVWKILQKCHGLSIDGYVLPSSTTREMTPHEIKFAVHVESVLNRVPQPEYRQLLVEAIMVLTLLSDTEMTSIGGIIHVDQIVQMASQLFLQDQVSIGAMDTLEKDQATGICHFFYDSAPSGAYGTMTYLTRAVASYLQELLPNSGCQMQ

[36] = biological target: Protein kinase C delta type (Homo sapiens) (UniProt Q05655); details: Compound concentration 1000.0 nM
[37] = biological target: Protein kinase C theta type (Homo sapiens) (UniProt Q04759); details: Compound concentration 1000.0 nM
[38] = biological target: Protein-tyrosine kinase 2-beta (Homo sapiens) (UniProt Q14289); details: Compound concentration 1000.0 nM
[39] = biological target: Ribosomal protein S6 kinase alpha-6 (Homo sapiens) (UniProt Q9UK32); details: Compound concentration 1000.0 nM
[40] = biological target: Dual specificity testis-specific protein kinase 1 (Homo sapiens) (UniProt Q15569); details: Compound concentration 1000.0 nM
[41] = biological target: TRAF2 and NCK-interacting protein kinase (Homo sapiens) (UniProt Q9UKE5); details: Compound concentration 1000.0 nM
[42] = biological target: Phosphatidylinositol 3-kinase catalytic subunit type 3 (Homo sapiens) (UniProt Q8NEB9); details: Compound concentration 1000.0 nM
[43] = biological target: Serine/threonine-protein kinase 32A (Homo sapiens) (UniProt Q8WU08); details: Compound concentration 1000.0 nM
Chain of Serine/threonine-protein kinase 32A (Homo sapiens) (Q8WU08 whole entry): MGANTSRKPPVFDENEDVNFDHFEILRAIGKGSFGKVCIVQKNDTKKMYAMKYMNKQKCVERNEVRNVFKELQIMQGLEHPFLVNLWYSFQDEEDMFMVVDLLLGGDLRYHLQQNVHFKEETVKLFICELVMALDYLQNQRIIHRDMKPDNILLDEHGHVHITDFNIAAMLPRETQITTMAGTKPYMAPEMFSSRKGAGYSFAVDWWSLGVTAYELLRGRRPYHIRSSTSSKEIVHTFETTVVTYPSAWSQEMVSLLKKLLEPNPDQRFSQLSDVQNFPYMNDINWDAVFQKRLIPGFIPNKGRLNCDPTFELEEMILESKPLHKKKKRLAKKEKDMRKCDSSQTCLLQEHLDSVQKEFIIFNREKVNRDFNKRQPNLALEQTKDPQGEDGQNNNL

[44] = biological target: 5-hydroxytryptamine receptor 2B (Homo sapiens) (UniProt P41595); details: Compound concentration 10.0 uM
[45] = biological target: Mu-type opioid receptor (Homo sapiens) (UniProt P35372); details: Compound concentration 10.0 uM

Chain of Activin receptor type-1-like (Homo sapiens) (P37023 whole entry): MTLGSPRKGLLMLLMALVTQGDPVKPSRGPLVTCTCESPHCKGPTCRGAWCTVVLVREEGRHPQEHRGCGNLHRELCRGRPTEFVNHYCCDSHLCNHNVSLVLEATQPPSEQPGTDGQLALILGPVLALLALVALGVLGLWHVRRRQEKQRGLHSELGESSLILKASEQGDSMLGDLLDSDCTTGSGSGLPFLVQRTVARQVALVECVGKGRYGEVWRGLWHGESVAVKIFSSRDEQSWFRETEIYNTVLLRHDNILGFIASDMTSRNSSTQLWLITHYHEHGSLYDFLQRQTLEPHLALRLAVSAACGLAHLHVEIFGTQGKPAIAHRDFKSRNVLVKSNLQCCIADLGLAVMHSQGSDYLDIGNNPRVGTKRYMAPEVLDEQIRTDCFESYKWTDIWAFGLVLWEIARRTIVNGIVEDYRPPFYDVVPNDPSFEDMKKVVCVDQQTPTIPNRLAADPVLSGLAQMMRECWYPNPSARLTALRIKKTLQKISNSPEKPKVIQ

COc1ccc2c(O[C@@H]3C[C@H]4C(=O)N[C@]5(C(=O)O)CC5/C=C\CCCCC[C@H](NC(=O)OC5CCCC5)C(=O)N4C3)cc(-c3csc(NC(=O)C(C)C)n3)nc2c1C (stereo not given in full) [BI 1230]
inactive: residual activity [1] 97% | residual activity [2] 100% | residual activity [3] 87% | residual activity [4] 93% | residual activity [5] 90% | residual activity [6] 100% | residual activity [7] 97% | residual activity [8] 99% | residual activity [9] 100% | residual activity [10] 97% | residual activity [11] 83% | residual activity [12] 92% | residual activity [13] 98% | residual activity [14] 89% | residual activity [15] 88% | residual activity [16] 77% | residual activity [17] 97% | residual activity [18] 100% | residual activity [19] 100% | residual activity [20] 100% | residual activity [21] 100% | residual activity [22] 89% | residual activity [23] 79% | residual activity [24] 99% | residual activity [25] 71% | residual activity [26] 80% | residual activity [27] 81% | residual activity [28] 100% | residual activity [29] 92% | residual activity [30] 71% | residual activity [31] 100% | residual activity [32] 100% | residual activity [33] 100% | residual activity [34] 99% | residual activity [35] 100% | residual activity [36] 84% | residual activity [37] 100% | residual activity [38] 100% | residual activity [39] 92% | residual activity [40] 91% | residual activity [41] 96% | residual activity [42] 100% | residual activity [43] 78% | inhibition [44] 0.15% | inhibition [45] 16.6%

O=C(N[C@H]1CCCCC/C=C\C2C[C@@]2(C(=O)O)NC(=O)[C@@H]2C[C@@H](Oc3ccncc3)CN2C1=O)OC1CCCC1 (stereo not given in full) [BI 1675]
inactive: residual activity [1] 84% | residual activity [2] 100% | residual activity [3] 71% | residual activity [4] 91% | residual activity [5] 96% | residual activity [6] 100% | residual activity [7] 89% | residual activity [8] 87% | residual activity [9] 100% | residual activity [10] 77% | residual activity [11] 91% | residual activity [12] 99% | residual activity [13] 100% | residual activity [14] 92% | residual activity [15] 69% | residual activity [16] 66% | residual activity [17] 86% | residual activity [18] 93% | residual activity [19] 100% | residual activity [20] 100% | residual activity [21] 100% | residual activity [22] 72% | residual activity [23] 80% | residual activity [24] 97% | residual activity [25] 100% | residual activity [26] 88% | residual activity [27] 85% | residual activity [28] 100% | residual activity [29] 100% | residual activity [30] 89% | residual activity [31] 92% | residual activity [32] 97% | residual activity [33] 94% | residual activity [34] 92% | residual activity [35] 100% | residual activity [36] 100% | residual activity [37] 100% | residual activity [38] 100% | residual activity [39] 60% | residual activity [40] 97% | residual activity [41] 78% | residual activity [42] 100% | residual activity [43] 89% | inhibition [44] 1.85% | inhibition [45] -8.64%
